From ChEMBL document CHEMBL3351533, “PASS-assisted design, synthesis and antioxidant evaluation of new butylated hydroxytoluene derivatives” (Eur J Med Chem, 2014)
pIC50: −log10 of the molar value.

What was measured:
Assay type in all cases: physicochemical
[1] = Antioxidant activity assessed as inhibition of lipid peroxidation after 1 hr by TBARS assay
[2] = Antioxidant activity assessed as inhibition of lipid peroxidation at 100 uM after 1 hr by TBARS assay
[3] = Antioxidant activity assessed as DPPH free radical scavenging activity after 60 mins by spectrophotometry
[4] = Antioxidant activity assessed as DPPH free radical scavenging activity at 100 uM after 60 mins by spectrophotometry; settings: 1 h

Row | Structure (SMILES) | pIC50 [1] | Imax [2] [%] | pIC50 [3] | Imax [4] [%]
1 | Cc1c(C)c2c(c(C)c1O)CC[C@@](C)(CCC[C@H](C)CCC[C@H](C)CCCC(C)C)O2 [ALPHA-TOCOPHEROL] | 5.25 | 84.69 |  | 
2 | COc1ccc(Nc2nnc(CSCc3cc(C(C)(C)C)c(O)c(C(C)(C)C)c3)s2)cc1 | 5.10 | 89.84 | 4.11 | 59.29
3 | O=C1O[C@H]([C@@H](O)CO)C(O)=C1O [ASCORBIC ACID] |  |  | 4.17 | 71.39
4 | COc1ccccc1Nc1nnc(CSCc2cc(C(C)(C)C)c(O)c(C(C)(C)C)c2)s1 | 4.88 | 89.18 | 4.04 | 54.69

Other lines, results leading:

Row | pIC50 [1] | Imax [2] [%] | pIC50 [3] | Imax [4] [%] | Structure (SMILES)
5 | 4.44 | 79.45 | < 4.00 | 25.23 | Cc1cc(C(C)(C)C)c(O)c(C(C)(C)C)c1 [BUTYLATED HYDROXYTOLUENE]
6 | 4.52 | 96.58 | 4.29 | 76.76 | COc1ccc(NC(=S)NNC(=O)CSCc2cc(C(C)(C)C)c(O)c(C(C)(C)C)c2)cc1
7 | 4.41 | 73.99 | 4.01 | 51.2 | CC(C)(C)c1cc(CSCC(=O)O)cc(C(C)(C)C)c1O
8 | 5.55 | 86.43 | 4.03 | 52.94 | COc1ccc(-n2c(S)nnc2CSCc2cc(C(C)(C)C)c(O)c(C(C)(C)C)c2)cc1
9 | 4.41 | 76.47 | < 4.00 | 27.83 | COc1ccccc1-n1c(S)nnc1CSCc1cc(C(C)(C)C)c(O)c(C(C)(C)C)c1
10 | 4.22 | 94.75 | 4.28 | 75.42 | COc1ccccc1NC(=S)NNC(=O)CSCc1cc(C(C)(C)C)c(O)c(C(C)(C)C)c1
